# Reference: patent publication US7129271B2, “Compounds for pest control and methods for their use” (The United States of America as represented by the …, priority 2000, dated 2006)
# Where two headings read alike, the source gives them in different places.
# How the values were obtained:
# Ae. aegypti adults = test: Mosquito bottle bioassay (Example 9); assay type: in vivo
# Protocol: Mosquito Colonies. Aedes aegypti adult mosquitoes were obtained from an existing colony at the Centers for Disease Control and Prevention (CDC), Division of Vector-Borne Infectious Diseases (DVBID), Fort Collins, Colo. This colony has been maintained for over fifteen years with no known history of exposure to pesticides. Mosquitoes were reared at 28° C., 85% RH, and a 14:10 h (light:dark) cycle. Larvae were grown in de-ionized water and fed ground liver powder solution ad libitum. Fourth instars were removed and placed in emergence cages, and adults were fed a 2% sucrose solution until assayed. Adults were exposed to test products at 4–7 d after emergence.
# (§1) Mosquit Bioassay. Adult mosquitoes were tested using the bottle bioassay method of Brogden, W. G., and McAllister, J. C., J. Am. Mosq. Control Assoc. 14:159–64 (1998), with minor modifications. Natural product extracts were two-fold serially diluted for a total of 8 concentrations ranging from 0.002% to 0.25% in 1.5 ml of acetone. Individual dilutions were added to 250 ml Wheaton glass bottles and capped. Bottles were manipulated to evenly coat all inner surfaces. The caps were removed and bottles were allowed to air-dry overnight. Once bottles were completely dry, 10–50 adult mosquitoes were aspirated into the bottles. Mosquitoes were held in the bottles for 24 h at 23° C. and 85% RH. Morbidity and mortality were recorded at 15, 30, 45, and 60 min and 24 hour intervals. One bottle for each replicate was treated with acetone only and served as a control. The dose-mortality data was evaluated with probit analysis, using the LdP Line software, to determine LC50 and LC90 values.
# X. cheopis adults = test: Flea bioassay, treated vials (Example 9); assay type: in vivo
# Protocol: Flea Colonies. Adult X. cheopis fleas (1–3 wk old) were obtained from a colony founded more than eight years ago using adults received from Tom Schwan, Rocky Mountain Laboratories, Hamilton, Mont. The area from which these original adult fleas were obtained, and the resulting colony, have no known histories of pesticide exposure.
# (§2) Tick and Flea Bioassays. Concentrations of the compounds were prepared by 2-fold serial dilutions of a 0.5% (wt:vol) solution of the extracts in acetone. […] A control treated with acetone only was run with each series. Tick and flea susceptibility was evaluated using a modified disposable pipette method. See, Barnard, D. R., et al., J. Econ. Entomol.
# (§3) The inner surface of 2-dram friction cap vials were treated with the compound/acetone solution, or acetone only as a control, and left to air-dry overnight. Three to 4 holes were made in the plastic cap to allow for air exchange. Nymphal ticks and adult fleas were then placed directly into the vials using forceps. Vials containing ticks or fleas were placed in desiccators for 24 h at 21° C. and 90% RH. Morbidity and mortality was recorded at 1, 2, 4, 8, and 24 h after initial exposure.
# I. scapularis nymphs = test: Tick bioassay, modified disposable pipette method, treated vials (Example 9); assay type: in vivo, Ixodes scapularis
# Protocol: Tick Colonies. […] There was no known pesticide used at this location. Ticks were maintained at 21° C., 90% RH, and received a 16:8 h (light:dark) cycle as described in […]. Med. […] Tick and Flea Bioassays. […] A control treated with acetone only was run with each series. Tick and flea susceptibility was evaluated using a modified disposable pipette method. See, Barnard, D. R., et al., J. Econ. […] Three to 4 holes were made in the plastic cap to allow for air exchange. Nymphal ticks and adult fleas were then placed directly into the vials using forceps. Vials containing ticks or fleas were placed in desiccators for 24 h at 21° C. and 90% RH. […] For each time point, if ticks were incapable of movement, maintaining normal posture, leg coordination, ability to right themselves, or any signs of life, they were considered moribund or dead.
# [1] = system: nymphal Ixodes scapularis; test: Treated-vial biocidal screening, 2% acetone solutions (Example 2); assay type: in vivo
# Protocol: (§4) Samples of the compounds listed below Were obtained from Dr. Karchesy, a co-inventor, and screened for biocidal activities against nymphal Ixodes scapularis. In this example, 2% acetone solutions (wt./vol.) of the compounds were applied to inner surfaces of 2-dram friction cap vials. Vials and caps were treated then allowed to dry for a minimum of 4 hours before placing 10 nymphs in each container. These same vials were used to challenge additional nymphs and adult I. scapularis ticks and adult Xenopsylla cheopis fleas through five weeks to observe any possible residual activity.
# (§5) Numbers in parentheses refer to length of treatment in terms of hours (h) or weeks (wk). Data is presented in terms of number killed/number tested. For test periods longer than 24 hours, the treated vials were allowed to sit for the stated period after drying (72 h, 4 wk, or 5 wk) and each group of arthropods was added to the vials for the final 24 h of the test period.
# [2] = system: adult I. scapularis ticks; test: Treated-vial biocidal screening, residual challenge (Example 2); assay type: in vivo, Ixodes scapularis; conditions: treated vials sat 4 wk; arthropods added for final 24 h
# Protocol: as §4, §5
# [3] = system: adult Xenopsylla cheopis fleas; test: as above; assay type: in vivo; conditions: treated vials sat 5 wk; arthropods added for final 24 h
# Protocol: as §4, §5
# Aedes aegypti adults = test: Residual activity, treated bottles aged before loading (Example 9); assay type: in vivo
# Protocol: as §1
# [4] = system: ticks, fleas, and mosquitoes; test: Residual activity, overall statements for ticks, fleas and mosquitoes (Example 9); conditions: 1 to 4 weeks after treatment
# [5] = system: Xenopsylla cheopis adults; test: Residual activity, treated vials aged before loading (Example 9); assay type: in vivo
# Protocol: as §2, with “acetone. The approximate toxicity of individual compounds was determined with a total of 8 doses ranging from 0.002% to 0.25%.” for “acetone.”, “Entomol. 74:466–69 (1981).” for “Entomol.”
# as §3, with “Groups of 10 nymphal I. scapularis and X. cheopis fleas were used in all tests, resulting in a total of 5,240 nymphs and 4,860 fleas exposed to the compounds. The” for “The”
# Ixodes scapularis nymphs = test: as above; assay type: in vivo
# Protocol: as §2, with “acetone. The approximate toxicity of individual compounds was determined with a total of 8 doses ranging from 0.002% to 0.25%.” for “acetone.”, “Entomol. 74:466–69 (1981).” for “Entomol.”
# as §3, with “Groups of 10 nymphal I. scapularis and X. cheopis fleas were used in all tests, resulting in a total of 5,240 nymphs and 4,860 fleas exposed to the compounds. The” for “The”
# [6] = Aedes aegypti, 24 h, 24 h exposure, 95% CI in parentheses, read-out: LC50
# [7] = Aedes aegypti, 24 h, 24 h exposure, 95% CI in parentheses, read-out: LC90 (the source's name)
# [8] = Xenopsylla cheopis, 24 h, 24 h exposure, 95% CI in parentheses, read-out: LC50
# [9] = Xenopsylla cheopis, 24 h, 24 h exposure, 95% CI in parentheses, read-out: LC90
# [10] = Ixodes scapularis, 24 h, 24 h exposure, 95% CI in parentheses, read-out: LC90
# [11] = 24 h exposure, 95% CI in parentheses
# [12] = residual activity at 1 week after treatment
# [13] = residual activity at 2 weeks after treatment
# [14] = residual activity at 4 weeks after treatment
SMILES,LC50 (Ae. aegypti adults; [6]) [µg/mL],EC90 (Ae. aegypti adults; [7]) [µg/mL],LC50 (X. cheopis adults; [8]) [µg/mL],LC90 (X. cheopis adults; [9]) [µg/mL],"LC50 (I. scapularis nymphs; Ixodes scapularis, 24 h) [µg/mL]",LC90 (I. scapularis nymphs; [10]) [µg/mL],LC50 (X. cheopis adults; [11]),LC50 (I. scapularis nymphs; [11]),LC50 (Aedes aegypti adults; [12]),LC90 (Aedes aegypti adults; [12]),LC50 (Aedes aegypti adults; [13]),LC90 (Aedes aegypti adults; [13]),residual activity (in words) [4],"LC50 [5, 12]","LC90 [5, 12]",LC50 (Ixodes scapularis nymphs; [12]),LC90 (Ixodes scapularis nymphs; [12]),other results
"C=C(C)C1CCC23OC2C(=O)C[C@@H](C)[C@]3(C)C1 (stereo partly drawn) [Compound 17, nootkatone-1,10-epoxide]",2230,20000,170,590,200,550,,,,,,,,,,,,
"C=C(C)[C@@H]1CCC2=CCC[C@@H](C)[C@]2(C)C1 [Compound 5, Valencene]",,,,,,,"0.041 (0.034–0.049) percent concentration, wt:vol","0.598 percent concentration, wt:vol",,,,,,,,,,"I. scapularis nymphs (24 h), number killed/number tested ([1]; 2% acetone solution (wt./vol.) dried in vials, 24 h): 10/10; I. scapularis nymphs (72 h), number killed/number tested ([1]; treated vials sat 72 h, arthropods added for final 24 h): 0/5; LC50 (Ae. aegypti adults; [11]): 0.015 (0.008–0.029) percent concentration, wt:vol; LC90 (Ae. aegypti adults; [11]): 0.037 (0.031–0.162) percent concentration, wt:vol; LC90 (X. cheopis adults; [11]): 0.063 (0.052–0.093) percent concentration, wt:vol; I. scapularis adults (4 wk), number killed/number tested [2]: 0/5; X. cheopis adults (5 wk), number killed/number tested [3]: 0/5; LC90 (I. scapularis nymphs; [11]): 44.837 percent concentration, wt:vol"
"C=C(C)[C@@H]1CCC2=CC(=O)C[C@@H](C)[C@]2(C)C1 [Compound 8, Nootkatone]",,,,,,,"0.0029 (0.002–0.0038) percent concentration, wt:vol","0.0061 (0.005–0.0072) percent concentration, wt:vol","0.0065 percent concentration, wt:vol","0.014 percent concentration, wt:vol","0.0067 (0.0058– percent concentration, wt:vol","0.012 (0.01–0.015) percent concentration, wt:vol",considerable biological activity,"0.02 (0.016–0.026) percent concentration, wt:vol","0.053 (0.04–0.082) percent concentration, wt:vol","0.025 percent concentration, wt:vol","0.071 percent concentration, wt:vol","LC50 (Aedes aegypti adults; [14]): 0.02 percent concentration, wt:vol; LC90 (Aedes aegypti adults; [14]): 0.29 percent concentration, wt:vol; LC50 (X. cheopis adults; 24 h exposure, 95% CI in parentheses, listed as compound 8): 0.0029 percent concentration, wt:vol; LC50 [5, 13]: 0.018 (0.013–0.024) percent concentration, wt:vol; LC90 [5, 13]: 0.081 (0.054–0.156) percent concentration, wt:vol; LC50 [5, 14]: 0.035 (0.026–0.051) percent concentration, wt:vol; LC90 [5, 14]: 0.161 (0.098–0.387) percent concentration, wt:vol; LC50 (Ixodes scapularis nymphs; [13]): 0.019 (0.014–0.024) percent concentration, wt:vol; LC90 (Ixodes scapularis nymphs; [13]): 0.056 (0.04–0.094) percent concentration, wt:vol; LC50 (Ixodes scapularis nymphs; [14]): 0.25 percent concentration, wt:vol; LC90 (Ixodes scapularis nymphs; [14]): 0.71 percent concentration, wt:vol"
"C=C(C)[C@@H]1CCC2=CC(=O)C[C@@H](C)[C@]2(C)C1 [Compound 9, Nootkatone]",,,,,,,"0.0066 (0.0046–0.0086) percent concentration, wt:vol","0.0033 (0.0027–0.004) percent concentration, wt:vol","0.0089 (0.0077–0.01) percent concentration, wt:vol","0.018 (0.015–0.023) percent concentration, wt:vol","0.0042 (0.0036– percent concentration, wt:vol","0.0088 (0.0074–0.011) percent concentration, wt:vol",considerable biological activity,"0.043 percent concentration, wt:vol","0.259 percent concentration, wt:vol","0.0084 (0.005–0.013) percent concentration, wt:vol","0.08 (0.045–0.22) percent concentration, wt:vol","LC50 (Aedes aegypti adults; [14]): 0.018 percent concentration, wt:vol; LC90 (Aedes aegypti adults; [14]): 0.036 percent concentration, wt:vol; LC50 (Ae. aegypti adults; [11]): 0.0075 percent concentration, wt:vol; LC50 [5, 13]: 0.027 percent concentration, wt:vol; LC90 [5, 13]: 0.085 percent concentration, wt:vol; LC90 [5, 14]: 0.111 (0.08–0.193) percent concentration, wt:vol; LC50 (Ixodes scapularis nymphs; [13]): 0.0089 (0.0068–0.012) percent concentration, wt:vol; LC90 (Ixodes scapularis nymphs; [13]): 0.027 (0.02–0.045) percent concentration, wt:vol"
"Cc1ccc(C(C)C)cc1O [Compound 4, Carvacrol]",,,,,68,,,,,,,,,,,,,"LC50 (Ae. aegypti adults; Aedes aegypti, 24 h): 51 µg/mL; EC90 (Ae. aegypti adults; Aedes aegypti, 24 h, read-out: LC90): 140 µg/mL; LC50 (X. cheopis adults; Xenopsylla cheopis, 24 h): 59 µg/mL; LC90 (X. cheopis adults; Xenopsylla cheopis, 24 h, read-out: LC90): 140 µg/mL; LC90 (I. scapularis nymphs; Ixodes scapularis, 24 h, read-out: LC90): 140 µg/mL"
"C[C@@H]1CC(=O)C2OC23CCC(C2(C)CO2)C[C@@]13C (stereo partly drawn) [Compound 18, nootkatone-1,10-11,12-diepoxide]",590,1140,640,4840,610,2450,,,,,,,,,,,,
"C=C(C=O)C1CCC2=CCC[C@@H](C)[C@]2(C)C1 (stereo partly drawn) [Compound 15, valencene-13-aldehyde]",24,34,49,85,59,170,,,"0.011 (0.0095–0.013) percent concentration, wt:vol","0.027 (0.022–0.037) percent concentration, wt:vol","0.014 (0.0074–0.025) percent concentration, wt:vol","0.037 (0.029–0.127) percent concentration, wt:vol",considerable biological activity,"0.059 percent concentration, wt:vol","0.148 percent concentration, wt:vol","0.026 (0.02–0.033) percent concentration, wt:vol","0.072 (0.052–0.121) percent concentration, wt:vol",
